Reference: patent US20070004724A1, “(+)-(2S,3s)-2-(3-chlorophenyl)-3,5,5-trimethyl-2-morpholinor for treating anxiety” (priority 2003, published 2007)
Where a name gives a salt, the structure may show the parent alone.

Experiments:
Male Sprague Dawley rats [1] = test: Social interaction test in rats, acute study; assay type: in vivo; conditions: acute rat social interaction study
Description: (§1) Social Interaction Test in Rats [Animal Models for Predicting Clinical Efficacy of Anxiolytic Drugs: Social Behaviour. Neuropsychobiology. 13 (1-2) 55-62, 1985]
(§2) Male Sprague Dawley rats (350-400 g at day of test, Charles River, Italy) were individually housed for five days before the test session. The 15 minutes social interaction test was performed between 9:00 to 14:00. Pairs of rats, weight and treatment matched, were placed in the test arena under high light condition. Active social interaction (sniffing, following, grooming, biting, boxing, crawling over and under) and motor activity, in terms of line crossing were scored by an observer blind to the drug treatment. The animals were treated orally with vehicle (2 ml/kg) or with the hydrochloride salt of the compound of formula (I) at 3, 10 and 30 mg/kg, 45 minutes prior to the test (acute study), or for 20 days twice a day and with a final treatment given on day 21, the last treatment given 45 minutes before the test (chronic study). An additional group of rats (positive control group) received a single oral dose of chlordiazepoxide (CDP) 4 mg/kg 1 hour before testing.
The results for social interaction in the acute study are illustrated in FIG. 2.

[2] = target: T1, dopamine (DA) uptake, synaptosomes from rat caudoputamen (Rattus norvegicus, UniProt P23977); test: In vitro synaptosomal uptake of [3H]-dopamine; assay type: biochemical; conditions: [3H]-dopamine uptake, mean ± SEM of 3 experiments
T1 construct: Synaptosomes for use in obtaining in vitro uptake data were prepared from hypothalamus or striatum; from tissue; host or cells: rat caudoputamen (striatum) synaptosomes
Description: In vitro uptake was determined, as reported previously, using synaptosomes prepared from rat caudoputamen (for dopamine uptake) and hypothalamus (for NA and serotonin uptake) using [^3H]-dopamine, [^3H]-NA and [^3H]-serotonin as transport substrates, respectively. See Eckhardt, S. B., R. A. Maxwell, and R. M. Ferris, A Structure-Activity Study of the Transport Sites for the Hypothalamic and Striatal Catecholamine Uptake Systems. Similarities and differences. Molecular Pharmacology, 21: p. 374-9, 1982.
Synaptosomes for use in obtaining in vitro uptake data were prepared from hypothalamus or striatum by gently homogenizing the tissue in a 0.3 M sucrose/25 mM Tris pH 7.4 buffer containing iproniazid phosphate to inhibit monoamine oxidase. The homogenate was centrifuged at 1100×g at 4° C. for 10 min and the supernatant was used for uptake studies. […] Under these conditions uptake was linear with respect to both for substrate and tissue (with <5% total substrate transported). Non-specific uptake was defined as uptake at 0° C. [^3H]-substrate, which had been transported into synaptosomes, was separated from free [^3H]-substrate by filtration over GF/B filters and washing with cold Krebs-Henseleit buffer. The filters were counted for tritum in a liquid scintillation spectrometer.

[3] = target: T2, serotonin uptake, synaptosomes from rat hypothalamus (Rattus norvegicus, UniProt P31652); test: In vitro synaptosomal uptake of [3H]-serotonin; assay type: biochemical
T2 construct: Synaptosomes for use in obtaining in vitro uptake data were prepared from hypothalamus or striatum; from tissue; host or cells: rat hypothalamus synaptosomes
From the text: Similarities and differences. Molecular Pharmacology, 21: p.

Male Sprague Dawley rats [4] = test: Social interaction test in rats, chronic study; assay type: in vivo, rat; conditions: for Number of line crossings: motor activity; for Number of line crossings / Time spent in active social interaction: average±s.e.
Description: as §1, §2
The results of the chronic study are given below in Table 3 (values given as average±s.e.), with the data for social interaction also illustrated in FIG. 1.

CD-1 mice = test: Light & dark box test in mice; assay type: in vivo; conditions: 3 mg/kg oral, 30 minutes before test
From the text: Light & Dark Box Test in Mice [Costall B. Jones B J. Kelly […]. and Tomkins D M. Exploration of Mice in a Black and White Test Box: Validation as a Model of Anxiety. Pharmacology, Biochemistry & Behavior. 32 (3):777-85, 1989] The light-dark box test consists of a Perspex box which is divided into two compartments, two-thirds of which is painted white and the remaining third is painted black. Mice are able to move freely between the two compartments using a small gap in the wall separating the two compartments. The floor is marked with lines, which provided an index of motor activity of the animals (number of line crossings). A white light (60 W) is placed over the white compartment of the box to provide a brightly-lit area which the animals find aversive. Mice tend to escape from this area preferring to remain in the black area, returning only occasionally to explore the white area. […] CD-1 mice (25-30 g, Charles River, Italy) were placed individually into the centre of the white side of the black/white test box for the 5 min test period and the behaviour of the mice was recorded by remote video recording. Behaviour of the mice was assessed subsequently from the tape recordings by an observer who was unaware of the animals' treatment. Different parameters were assessed to estimate both the anxiolytic and the sedative effects of the compound tested. […]

[5] = system: cell-lines expressing human monoamine transporters; test: Compound-induced cytotoxicity in the transporter cell-lines; assay type: cell-based; conditions: at any of the concentrations causing reuptake inhibition
[6] = chronic study, at 3 and 10 mg/kg oral

T2 sequence (P31652 whole entry): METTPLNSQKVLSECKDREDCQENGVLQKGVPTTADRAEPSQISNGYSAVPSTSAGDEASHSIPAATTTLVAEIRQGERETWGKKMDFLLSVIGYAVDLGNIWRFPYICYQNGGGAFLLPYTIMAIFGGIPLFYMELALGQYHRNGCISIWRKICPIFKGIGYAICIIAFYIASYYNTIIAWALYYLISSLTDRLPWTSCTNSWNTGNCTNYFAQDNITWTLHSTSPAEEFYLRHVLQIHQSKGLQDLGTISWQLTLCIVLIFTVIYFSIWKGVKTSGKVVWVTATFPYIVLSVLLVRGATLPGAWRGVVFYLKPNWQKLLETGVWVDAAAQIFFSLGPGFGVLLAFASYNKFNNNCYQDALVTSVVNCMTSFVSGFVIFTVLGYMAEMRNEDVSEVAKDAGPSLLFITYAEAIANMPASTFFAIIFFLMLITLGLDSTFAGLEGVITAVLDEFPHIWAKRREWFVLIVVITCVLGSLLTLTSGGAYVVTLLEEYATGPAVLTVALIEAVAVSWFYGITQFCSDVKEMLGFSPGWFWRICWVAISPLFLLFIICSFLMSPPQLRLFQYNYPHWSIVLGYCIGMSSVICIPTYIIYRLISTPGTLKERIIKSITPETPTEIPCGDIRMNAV
T1 sequence (P23977 whole entry): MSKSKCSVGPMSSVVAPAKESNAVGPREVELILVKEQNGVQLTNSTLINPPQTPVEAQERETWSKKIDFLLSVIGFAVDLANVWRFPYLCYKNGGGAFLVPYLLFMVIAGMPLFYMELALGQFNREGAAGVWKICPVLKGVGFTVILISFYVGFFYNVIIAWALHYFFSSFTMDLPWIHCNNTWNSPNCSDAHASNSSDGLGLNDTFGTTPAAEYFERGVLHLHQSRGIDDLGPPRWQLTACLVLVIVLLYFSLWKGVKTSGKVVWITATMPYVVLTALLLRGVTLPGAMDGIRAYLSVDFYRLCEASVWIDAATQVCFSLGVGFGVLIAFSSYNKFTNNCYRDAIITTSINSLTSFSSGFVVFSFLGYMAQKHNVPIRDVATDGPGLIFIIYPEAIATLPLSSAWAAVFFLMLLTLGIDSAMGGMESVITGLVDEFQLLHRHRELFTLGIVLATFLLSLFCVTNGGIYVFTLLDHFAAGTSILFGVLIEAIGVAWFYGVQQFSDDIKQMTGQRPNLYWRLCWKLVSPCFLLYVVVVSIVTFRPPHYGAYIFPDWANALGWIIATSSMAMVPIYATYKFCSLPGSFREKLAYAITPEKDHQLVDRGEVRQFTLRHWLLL

With C[C@@H]1NC(C)(C)CO[C@@]1(O)c1cccc(Cl)c1 [Formula (I), (+)-(2S,3S)-2-(3-chlorophenyl)-3,5,5-trimethyl-2-morpholinol] the anxiogenic activity (Male Sprague Dawley rats [1]) was “lack of anxiogenic activity”, the IC50 [2] was 9.3 ± 0.41 µM and the IC50 [3] was greater than 30 µM. For the same molecule, the “inhibition of serotonin uptake” value ([3]; at 30 μM) was “no inhibition”.

CNC1=Nc2ccc(Cl)cc2C(c2ccccc2)=[N+]([O-])C1 [CDP, chlordiazepoxide, reference compound] was tested, and the “Number of line crossings” value (Male Sprague Dawley rats [4]; positive control, single oral dose 4 mg/kg, n=14) was 560.1 ± 29.6, the “Time spent in active social interaction, % (change relative to vehicle)” value (Male Sprague Dawley rats [4]; positive control, single oral dose 4 mg/kg) was 53.2% and the “Time spent in active social interaction” value (Male Sprague Dawley rats [4]; positive control, single oral dose 4 mg/kg 1 hour before testing, n=14) was 124.4 ± 10.7 s.

With C[C@@H]1NC(C)(C)CO[C@@]1(O)c1cccc(Cl)c1 [Formula (I). HCl, (+)-(2S,3S)-2-(3-chlorophenyl)-3,5,5-trimethyl-2-morpholinol hydrochloride] the “anxiolytic-like effect in light & dark box test” value (CD-1 mice) was “able to induce an anxiolytic-like effect”, the cytotoxicity [5] was “No cytotoxicity was observed” and the “Time spent in active social interaction” value (Male Sprague Dawley rats [4]; chronic study, 3 mg/kg oral twice a day 20 days + day 21, 45 min before test, n=14) was 114.0 ± 11.5 s. For the same molecule, the “Time spent in active social interaction” value (Male Sprague Dawley rats [4]; chronic study, 10 mg/kg oral twice a day 20 days + day 21, 45 min before test, n=10) was 126.4 ± 13.8 s, the “Time spent in active social interaction” value (Male Sprague Dawley rats [4]; chronic study, 30 mg/kg oral twice a day 20 days + day 21, 45 min before test, n=14) was 97.6 ± 8.7 s and the “effect on social interaction” value (Male Sprague Dawley rats [4]; chronic study, at 30 mg/kg oral) was “lack of effect on social interaction”. For the same molecule, the “effect on locomotor activity” value (Male Sprague Dawley rats [4]; chronic study, at 30 mg/kg oral, compared to vehicle) was “significant reduction in locomotor activity”, the “anxiolytic-like effect in social interaction test” value (Male Sprague Dawley rats [4]; [6]) was “able to induce an anxiolytic-like effect” and the “effect on locomotor activity” value (Male Sprague Dawley rats [4]; [6]) was “without any significant effects on locomotor activity”. The “Number of line crossings” value (Male Sprague Dawley rats [4]; chronic study, 3 mg/kg oral, n=14) was 587.0 ± 29.1, the “Number of line crossings” value (Male Sprague Dawley rats [4]; chronic study, 10 mg/kg oral, n=10) was 571.0 ± 44.1 and the “Number of line crossings” value (Male Sprague Dawley rats [4]; chronic study, 30 mg/kg oral, n=14) was 476.2 ± 42.6.
